Data as given in PMC13342644, “Structural basis for transport and inhibition of nucleotide sugar transport in pathogenic fungi” (Nature Communications, 2026).

Tests used:
Vrg4 liposomes = format: biochemical; details: liposome assays, GDP-mannose versus GMP as antiport substrate
[1] = system: NDY5 yeast containing an empty yEP181 vector; experiment: Hygromycin B-based in vivo viability (growth) assay; format: cell-based, Saccharomyces cerevisiae
Experimental: The yeast was grown in minimal media to select for the plasmids, and the expression of the nanobody was induced with galactose. After overnight galactose induction, the yeast culture was diluted, and growth was monitored over 30 h.
An overnight culture was grown in minus -Leu-Ura medium containing 2% glucose and then diluted 1:10 into medium containing 2% lactate. After 9 h of growth, 2% galactose was added, and the cultures were left overnight. […] The cultures were grown at 30 °C with shaking, and growth was monitored over the next 30 h by measuring the OD.

SMILES | Transport rate as antiport substrate, in words (Vrg4 liposomes) | Growth / sensitivity to hygromycin B, in words [1]
Nc1nc2c(ncn2[C@@H]2O[C@H](COP(=O)(O)OP(=O)(O)O[C@H]3O[C@H](CO)[C@@H](O)[C@H](O)[C@@H]3O)[C@@H](O)[C@H]2O)c(=O)[nH]1 [GDP-mannose] | faster transport rates and greater overall uptake | –
CN[C@H]1C[C@@H](N)[C@H](O)[C@@H](O[C@@H]2O[C@H](CO)[C@H](O)[C@@H]3OC4(O[C@H]23)O[C@H]([C@@H](N)CO)[C@H](O)[C@H](O)[C@H]4O)[C@@H]1O (some centres unmarked) [hygromycin B] | – | sensitive
